# Read-outs that look alike come from different tables or passages of the source.
# Target: T1, SMARCA2 (Homo sapiens, UniProt P51531)
# T1 construct: endogenous in cells
# Assay: SMARCA2 HiBiT degradation assay (cellular)
# Type: cell-based
# Settings: for DC50: read-out: HiBit A549 SMARCA2 IP
# [1] = A549, Emax = amount of residual protein remaining in the cell following compound treatment
# [2] = SMARCA2 HiBiT cells, luminescence readout, 11-point titration from 10 μM, 6 hours or 16 hours
# [3] = A549, different HIBIT SMARCA2 clone (footnote a), residual protein remaining
# [4] = different HIBIT SMARCA2 clone (footnote a)
# T1 sequence (P51531 whole entry): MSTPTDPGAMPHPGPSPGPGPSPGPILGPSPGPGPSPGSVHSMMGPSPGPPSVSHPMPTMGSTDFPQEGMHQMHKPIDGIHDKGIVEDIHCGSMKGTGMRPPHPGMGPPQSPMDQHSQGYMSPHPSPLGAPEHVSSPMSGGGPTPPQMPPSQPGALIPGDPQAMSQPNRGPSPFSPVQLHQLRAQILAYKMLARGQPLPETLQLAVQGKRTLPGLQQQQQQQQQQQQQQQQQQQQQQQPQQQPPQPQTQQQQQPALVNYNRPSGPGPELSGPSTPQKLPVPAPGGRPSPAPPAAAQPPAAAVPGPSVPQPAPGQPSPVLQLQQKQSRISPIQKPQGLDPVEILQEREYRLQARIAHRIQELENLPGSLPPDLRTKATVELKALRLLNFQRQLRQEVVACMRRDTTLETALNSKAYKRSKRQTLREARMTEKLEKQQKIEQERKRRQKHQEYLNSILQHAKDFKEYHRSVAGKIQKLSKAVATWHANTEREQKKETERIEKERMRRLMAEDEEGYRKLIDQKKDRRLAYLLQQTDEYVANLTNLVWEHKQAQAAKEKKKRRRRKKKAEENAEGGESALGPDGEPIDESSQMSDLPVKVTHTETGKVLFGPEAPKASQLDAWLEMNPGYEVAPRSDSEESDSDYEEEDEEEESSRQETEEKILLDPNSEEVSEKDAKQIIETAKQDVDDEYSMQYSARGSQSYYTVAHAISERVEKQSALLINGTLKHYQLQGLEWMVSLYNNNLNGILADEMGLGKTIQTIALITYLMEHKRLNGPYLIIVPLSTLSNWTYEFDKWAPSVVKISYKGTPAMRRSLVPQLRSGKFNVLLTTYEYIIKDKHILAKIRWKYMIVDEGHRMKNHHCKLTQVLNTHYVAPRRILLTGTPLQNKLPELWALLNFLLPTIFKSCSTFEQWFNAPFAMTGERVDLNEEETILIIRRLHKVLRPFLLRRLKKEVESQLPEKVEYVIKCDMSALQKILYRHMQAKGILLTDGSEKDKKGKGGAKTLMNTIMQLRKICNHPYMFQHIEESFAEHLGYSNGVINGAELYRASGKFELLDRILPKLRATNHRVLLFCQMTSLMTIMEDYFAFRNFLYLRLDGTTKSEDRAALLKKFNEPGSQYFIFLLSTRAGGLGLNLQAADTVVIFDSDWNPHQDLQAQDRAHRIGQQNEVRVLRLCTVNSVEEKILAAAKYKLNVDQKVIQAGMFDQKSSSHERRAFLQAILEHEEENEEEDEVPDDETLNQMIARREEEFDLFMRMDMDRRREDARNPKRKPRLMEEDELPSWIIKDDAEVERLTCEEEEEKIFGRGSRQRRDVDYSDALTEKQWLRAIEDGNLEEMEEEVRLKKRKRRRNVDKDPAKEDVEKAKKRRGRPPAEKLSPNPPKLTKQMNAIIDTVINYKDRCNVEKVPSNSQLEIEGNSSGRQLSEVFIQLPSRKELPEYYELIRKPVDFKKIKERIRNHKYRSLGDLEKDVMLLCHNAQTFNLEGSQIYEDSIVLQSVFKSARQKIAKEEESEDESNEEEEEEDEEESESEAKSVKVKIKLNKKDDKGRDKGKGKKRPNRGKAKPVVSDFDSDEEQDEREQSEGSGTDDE
Emax [3] [%],DC50 [4] [µM],SMILES,Emax [1] [%],DC50 [2] [µM]
–,–,"Cc1ncsc1-c1ccc(CNC(=O)[C@@H]2C[C@@H](O)CN2C(=O)[C@@H](NC(=O)CCCCCCCCC(=O)N(C)CCNC(=O)C2CN(c3cc(-c4ccccc4O)nnc3N)CCN2c2ccccc2)C(C)(C)C)cc1 (mixture of isomers) [Example 98, N′-[2-[[4-[3-amino-6-(2-hydroxyphenyl)pyridazin-4-yl]-1-phenyl-piperazine-2-carbonyl]amino]ethyl]-N′-methyl-N-[rac-(1S)-2,2-dimethyl-1-[rac-(2S,4R)-4-hydroxy-2-[[4-(4-methylthiazol-5-yl)phenyl]methylcarbamoyl]pyrrolidine-1-carbonyl]propyl]decanediamide]",28,1.65
7.9,0.068,"Cc1ncsc1-c1ccc(CNC(=O)[C@@H]2C[C@@H](O)CN2C(=O)[C@@H](NC(=O)CCCCCCCCC(=O)N2CCN(c3ccc(N4CCCC(Oc5cc(-c6cc(F)ccc6O)nnc5N)C4)cc3)CC2)C(C)(C)C)cc1 (mixture of isomers) [Example 108, rac-(2S,4R)-4-hydroxy-N-[[4-(4-methylthiazol-5-yl)phenyl]methyl]-1-[rac-(2S)-2-[[10-[4-[4-[3-[3-amino-6-(5-fluoro-2-hydroxy-phenyl)pyridazin-4-yl]oxy-1-piperidyl]phenyl]piperazin-1-yl]-10-oxo-decanoyl]amino]-3,3-dimethyl-butanoyl]pyrrolidine-2-carboxamide]",–,–
23,0.285,"Cc1ncsc1-c1ccc(CNC(=O)[C@@H]2C[C@@H](O)CN2C(=O)[C@@H](NC(=O)CCCCCC(=O)N2CCN(c3ccc(N4CCCC(Oc5cc(-c6cc(F)ccc6O)nnc5N)C4)cc3)CC2)C(C)(C)C)cc1 (mixture of isomers) [Example 109, rac-(2S,4R)-4-hydroxy-N-[[4-(4-methylthiazol-5-yl)phenyl]methyl]-1-[rac-(2S)-2-[[7-[4-[4-[3-[3-amino-6-(5-fluoro-2-hydroxy-phenyl)pyridazin-4-yl]oxy-1-piperidyl]phenyl]piperazin-1-yl]-7-oxo-heptanoyl]amino]-3,3-dimethyl-butanoyl]pyrrolidine-2-carboxamide]",–,–
–,–,"Cc1ncsc1-c1ccc(CNC(=O)[C@@H]2C[C@@H](O)CN2C(=O)C(NC(=O)CCCCCCC(=O)N2CCC3(CC2)CCN(c2cc(-c4ccccc4O)nnc2N)CC3)C(C)(C)C)cc1 (stereo in doubt) [Example 6, (2S,4R)-1-[(2R)-2-[[8-[9-[3-amino-6-(2-hydroxyphenyl)pyridazin-4-yl]-3,9-diazaspiro[5.5]undecan-3-yl]-8-oxo-octanoyl]amino]-3,3-dimethyl-butanoyl]-4-hydroxy-N-[[4-(4-methylthiazol-5-yl)phenyl]methyl]pyrrolidine-2-carboxamide]",54,2.91
–,–,"Cc1ncsc1-c1ccc([C@@H](C)NC(=O)[C@H]2C[C@H](O)CN2C(=O)[C@H](NC(=O)CCOCCC(=O)N2CCN(c3ccc(N4CCCC(Oc5cc(-c6ccccc6O)nnc5N)C4)cc3)CC2)C(C)(C)C)cc1 (stereo in doubt) [Example 31, (2R,4S)-1-((2R)-2-(3-(3-(4-(4-(3-((3-amino-6-(2-hydroxyphenyl)pyridazin-4-yl)oxy)piperidin-1-yl)phenyl)piperazin-1-yl)-3-oxopropoxy)propanamido)-3,3-dimethylbutanoyl)-4-hydroxy-N-((R)-1-(4-(4-methylthiazol-5-yl)phenyl)ethyl)pyrrolidine-2-carboxamide]",30,1.92
–,–,"Cc1ncsc1-c1ccc(CNC(=O)[C@@H]2C[C@@H](O)CN2C(=O)[C@@H](NC(=O)CCCCCCCCC(=O)N2CCN(c3cc(-c4ccccc4O)nnc3N)CC2)C(C)(C)C)cc1 [Example 1, (2S,4R)-1-[(2S)-2-[[10-[4-[3-amino-6-(2-hydroxyphenyl)pyridazin-4-yl]piperazin-1-yl]-10-oxo-decanoyl]amino]-3,3-dimethyl-butanoyl]-4-hydroxy-N-[[4-(4-methylthiazol-5-yl)phenyl]methyl]pyrrolidine-2-carboxamide]",52,2.78
–,–,"Cc1ncsc1-c1ccc(CNC(=O)[C@@H]2C[C@@H](O)CN2C(=O)[C@@H](NC(=O)CCCCCCCC(=O)N2CCN(CCOc3cccc(N4C5CCC4CN(c4cc(-c6ccccc6O)nnc4N)C5)c3)CC2)C(C)(C)C)cc1 [Example 2, (2S,4R)-1-[(2S)-2-[[9-[4-[2-[3-[3-[3-amino-6-(2-hydroxyphenyl)pyridazin-4-yl]-3,8-diazabicyclo[3.2.1]octan-8-yl]phenoxy]ethyl]piperazin-1-yl]-9-oxo-nonanoyl]amino]-3,3-dimethyl-butanoyl]-4-hydroxy-N-[[4-(4-methylthiazol-5-yl)phenyl]methyl]pyrrolidine-2-carboxamide]",38,0.478
–,–,"Cc1ncsc1-c1ccc(CNC(=O)[C@@H]2C[C@@H](O)CN2C(=O)[C@@H](NC(=O)CCCCCCCC(=O)N2CCN(Cc3cccc(N4C5CCC4CN(c4cc(-c6ccccc6O)nnc4N)C5)c3)CC2)C(C)(C)C)cc1 [Example 3, (2S,4R)-1-[(2S)-2-[[9-[4-[[3-[3-[3-amino-6-(2-hydroxyphenyl)pyridazin-4-yl]-3,8-diazabicyclo[3.2.1]octan-8-yl]phenyl]methyl]piperazin-1-yl]-9-oxo-nonanoyl]amino]-3,3-dimethyl-butanoyl]-4-hydroxy-N-[[4-(4-methylthiazol-5-yl)phenyl]methyl]pyrrolidine-2-carboxamide]",51,0.479
–,–,"Cc1ncsc1-c1ccc(CNC(=O)[C@@H]2C[C@@H](O)CN2C(=O)[C@@H](NC(=O)CCCCCCCCC(=O)N2CCN(c3cc(-c4ccccc4O)nnc3N)CC2C)C(C)(C)C)cc1 (stereo partly drawn) [Example 4, (2S,4R)-1-[(2S)-2-[[10-[4-[3-amino-6-(2-hydroxyphenyl)pyridazin-4-yl]-2-methyl-piperazin-1-yl]-10-oxo-decanoyl]amino]-3,3-dimethyl-butanoyl]-4-hydroxy-N-[[4-(4-methylthiazol-5-yl)phenyl]methyl]pyrrolidine-2-carboxamide]",36,2.93
–,–,"Cc1ncsc1-c1ccc(CNC(=O)[C@@H]2C[C@@H](O)CN2C(=O)[C@@H](NC(=O)CCCCCCCCC(=O)N2C3CCC2CN(c2cc(-c4ccccc4O)nnc2N)C3)C(C)(C)C)cc1 [Example 5, (2S,4R)-1-[(2S)-2-[[10-[3-[3-amino-6-(2-hydroxyphenyl)pyridazin-4-yl]-3,8-diazabicyclo[3.2.1]octan-8-yl]-10-oxo-decanoyl]amino]-3,3-dimethyl-butanoyl]-4-hydroxy-N-[[4-(4-methylthiazol-5-yl)phenyl]methyl]pyrrolidine-2-carboxamide]",31,2.51
–,–,"Cc1ncsc1-c1ccc(CNC(=O)[C@@H]2C[C@@H](O)CN2C(=O)[C@@H](NC(=O)CCCCCCCCCC(=O)N2CCN(Cc3cccc(N4C5CCC4CN(c4cc(-c6ccccc6O)nnc4N)C5)c3)CC2)C(C)(C)C)cc1 [Example 7, (2S,4R)-1-[(2S)-2-[[11-[4-[[3-[3-[3-amino-6-(2-hydroxyphenyl)pyridazin-4-yl]-3,8-diazabicyclo[3.2.1]octan-8-yl]phenyl]methyl]piperazin-1-yl]-11-oxo-undecanoyl]amino]-3,3-dimethyl-butanoyl]-4-hydroxy-N-[[4-(4-methylthiazol-5-yl)phenyl]methyl]pyrrolidine-2-carboxamide]",39,0.357
–,–,"Cc1ncsc1-c1ccc(CNC(=O)[C@@H]2C[C@@H](O)CN2C(=O)[C@H](NC(=O)CCCCCCC(=O)N2CCN(CCOc3cccc(N4C5CCC4CN(c4cc(-c6ccccc6O)nnc4N)C5)c3)CC2)C(C)(C)C)cc1 [Example 8, (2S,4R)-1-[(2R)-2-[[8-[4-[2-[3-[3-[3-amino-6-(2-hydroxyphenyl)pyridazin-4-yl]-3,8-diazabicyclo[3.2.1]octan-8-yl]phenoxy]ethyl]piperazin-1-yl]-8-oxo-octanoyl]amino]-3,3-dimethyl-butanoyl]-4-hydroxy-N-[[4-(4-methylthiazol-5-yl)phenyl]methyl]pyrrolidine-2-carboxamide]",48,0.61
–,–,"Cc1ncsc1-c1ccc(CNC(=O)[C@@H]2C[C@@H](O)CN2C(=O)[C@H](NC(=O)CCCCCC(=O)N2CCN(CCOc3cccc(N4C5CCC4CN(c4cc(-c6ccccc6O)nnc4N)C5)c3)CC2)C(C)(C)C)cc1 [Example 9, (2S,4R)-1-[(2R)-2-[[7-[4-[2-[3-[3-[3-amino-6-(2-hydroxyphenyl)pyridazin-4-yl]-3,8-diazabicyclo[3.2.1]octan-8-yl]phenoxy]ethyl]piperazin-1-yl]-7-oxo-heptanoyl]amino]-3,3-dimethyl-butanoyl]-4-hydroxy-N-[[4-(4-methylthiazol-5-yl)phenyl]methyl]pyrrolidine-2-carboxamide]",58,0.733
–,–,"Cc1ncsc1-c1ccc(CNC(=O)[C@@H]2C[C@@H](O)CN2C(=O)[C@@H](NC(=O)CCCCCCCCC(=O)N2CCN(CCOc3cccc(N4C5CCC4CN(c4cc(-c6ccccc6O)nnc4N)C5)c3)CC2)C(C)(C)C)cc1 [Example 10, (2S,4R)-1-[(2S)-2-[[10-[4-[2-[3-[3-[3-amino-6-(2-hydroxyphenyl)pyridazin-4-yl]-3,8-diazabicyclo[3.2.1]octan-8-yl]phenoxy]ethyl]piperazin-1-yl]-10-oxo-decanoyl]amino]-3,3-dimethyl-butanoyl]-4-hydroxy-N-[[4-(4-methylthiazol-5-yl)phenyl]methyl]pyrrolidine-2-carboxamide]",19,0.286
–,–,"Cc1ncsc1-c1ccc(CNC(=O)[C@@H]2C[C@@H](O)CN2C(=O)[C@@H](NC(=O)CCCCCCCCCC(=O)N2CCN(CCOc3cccc(N4C5CCC4CN(c4cc(-c6ccccc6O)nnc4N)C5)c3)CC2)C(C)(C)C)cc1 [Example 11, (2S,4R)-1-[(2S)-2-[[11-[4-[2-[3-[3-[3-amino-6-(2-hydroxyphenyl)pyridazin-4-yl]-3,8-diazabicyclo[3.2.1]octan-8-yl]phenoxy]ethyl]piperazin-1-yl]-11-oxo-undecanoyl]amino]-3,3-dimethyl-butanoyl]-4-hydroxy-N-[[4-(4-methylthiazol-5-yl)phenyl]methyl]pyrrolidine-2-carboxamide]",20,0.104

# From patent US20230002367A1, “BIFUNCTIONAL COMPOUNDS” (Hoffmann-La Roche Inc., priority 2019, published 2023)
